Experimental data reported in paper doi:10.1101/2025.08.13.670037v1 (bioRxiv, 2025).
No end group written: not given here.

Assay: Stability of peptide in human plasma
Format: in vitro ADME

**Q.** Which results are given for “PVLDLFRELLNELLEALKQKLKPDWLKAFYDKVAEKLKEAF [22A-P-18A]”?
**A.** peptide lost, in sHDL particles (human plasma, 24h incubation): 15%; remaining at 24 h, 0.25 mg/mL (human, plasma, SD): 73.6 ± 6.3%
